Source: patent US7977328B2, “Heteroaryl benzamide derivatives for use as GLK activators in the treatment of diabetes” (AstraZeneca AB, priority 2005, dated 2011)

Columns and labels:
[1] = test system: Zucker obese fa/fa rats; test: Oral Glucose Tolerance Test (OGTT); format: in vivo, rat; settings: 10 mg/kg, given orally 120 minutes before glucose 2 g/kg; Zucker obese fa/fa rats on high fat diet
Method: Oral glucose tolerance tests were done on conscious Zucker obese fa/fa rats (age 12-13 weeks or older) fed a high fat diet (45% kcal fat) for at least two weeks prior to experimentation. The animals were fasted for 2 hours before use for experiments. A test compound or a vehicle was given orally 120 minutes before oral administration of a glucose solution at a dose of 2 g/kg body weight. Blood glucose levels were measured using a Accucheck glucometer from tail bled samples taken at different time points before and after administration of glucose (time course of […]). A time curve of the blood glucose levels was generated and the area-under-the-curve (AUC) for 120 minutes was calculated (the time of glucose administration being time zero). Percent reduction in glucose excursion was determined using the AUC in the vehicle-control group as zero percent reduction.

[2] = target: T1, recombinant human pancreatic GLK (Homo sapiens, UniProt P35557); test: biochemical
T1 sequence (P35557 1-465): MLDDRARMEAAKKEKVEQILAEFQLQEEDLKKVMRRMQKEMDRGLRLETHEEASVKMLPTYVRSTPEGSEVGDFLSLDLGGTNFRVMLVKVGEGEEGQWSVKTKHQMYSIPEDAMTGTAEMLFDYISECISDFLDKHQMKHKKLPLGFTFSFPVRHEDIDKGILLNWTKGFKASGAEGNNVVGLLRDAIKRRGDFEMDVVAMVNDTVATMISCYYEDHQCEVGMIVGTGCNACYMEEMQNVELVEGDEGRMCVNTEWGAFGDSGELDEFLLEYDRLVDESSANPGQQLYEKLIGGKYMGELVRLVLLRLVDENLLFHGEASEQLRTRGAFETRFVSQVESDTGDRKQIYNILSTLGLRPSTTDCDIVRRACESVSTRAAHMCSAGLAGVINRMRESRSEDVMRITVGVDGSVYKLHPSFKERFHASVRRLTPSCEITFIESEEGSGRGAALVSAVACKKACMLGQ

Structure (SMILES) | melting point [°C] | OGTT activity (percent reduction in glucose excursion, AUC) [1] [%] | EC50 [2] [nM]
Cc1cnc(NC(=O)c2cc(Oc3ccc(C(=O)N4CCC4)nc3)cc(OC(C)C)c2)cn1 [Example 37, 3-{[6-(Azetidin-1-ylcarbonyl)pyridin-3-yl]oxy}-5-[(1-methylethyl)oxy]-N-(5-methylpyrazin-2-yl)benzamide] | 125.7 |  | 
COC[C@H](C)Oc1cc(Oc2ccc(C(=O)N3CCC3)nc2)cc(C(=O)Nc2ccn(C)n2)c1 [Example 3, 3-{[6-(Azetidin-1-ylcarbonyl)pyridin-3-yl]oxy}-5-{[(1S)-1-methyl-2-(methyloxy)ethyl]oxy}-N-(1-methyl-1H-pyrazol-3-yl)benzamide] | 132.7 | 54 | 31
Cc1cnc(NC(=O)c2cc(Oc3cnc(C(=O)N4CCC4)cn3)cc(O[C@@H](C)CO)c2)cn1 [Example 59, 3-{[5-(Azetidin-1-ylcarbonyl)pyrazin-2-yl]oxy}-5-{[(1S)-2-hydroxy-1-methylethyl]oxy}-N-(5-methylpyrazin-2-yl)benzamide] | 100.6 |  | 
